From publication PMC9972953, “Thermophilic Carboxylesterases from Hydrothermal Vents of the Volcanic Island of Ischia Active on Synthetic and Biobased Polymers and Mycotoxins” (Applied and Environmental Microbiology, 2023) come the findings set out here.

SMILES strings stand for the structures.

Assay type in all cases: biochemical, uncultured Chloroflexota bacterium
Conditions in all cases: pH 9.0, 30°C

Assay [1] concerns T1, IS10.
T1 construct: N-terminal 6xHis tag (pET-46 Ek/LIC), E. coli BL21(DE3); dimer in solution
The experiment in a line: spectrophotometric release of α-naphthol, […] nm.

Assay [2] has as its system T2, IS12.
T2 construct: N-terminal 6xHis tag (pET-46 Ek/LIC), E. coli BL21(DE3); dimer in solution
The experiment in a line: spectrophotometric release of α-naphthol, […] nm.

Assay [3] relates to T2, IS12. The experiment in a line: spectrophotometric release of p-nitrophenol, […] nm.
Assay [4] relates to T1, IS10. The experiment in a line: spectrophotometric release of p-nitrophenol, […] nm.

Usually Km stands for the concentration of substrate that gives half-maximal velocity. Take `CCC(=O)Oc1cccc2ccccc12` [αN-propionate]: the results for the Michaelis constant (Km) in the assay with IS10 [1] and in the assay on IS12 [2] were 60 ± 20 µM and 690 ± 190 µM, respectively. Consider `CCCC(=O)Oc1ccc([N+](=O)[O-])cc1` [pNP-butyrate], for which the results for the Michaelis-Menten constant (Km) in the assay with IS12 [3] and in the assay on IS10 [4] were 80 ± 10 µM and 60 ± 10 µM, respectively. As for `CCCCCC(=O)Oc1ccc([N+](=O)[O-])cc1` [pNP-hexanoate], the Km in the assay on IS12 [3] is 90 ± 10 µM; in the assay with IS10 [4], 40 ± 10 µM. A word on the KM: it is the substrate concentration at which the rate is half of its maximum. As to `CCCC(=O)Oc1cccc2ccccc12` [αN-butyrate], in the assay on IS10 [1], the “KM” value was 120 ± 40 µM. In the case of `CC(=O)Oc1ccc([N+](=O)[O-])cc1` [pNP-acetate], the Michaelis-Menten constant (Km) stood at 220 ± 50 µM in the assay on IS12 [3] and 50 ± 10 µM with IS10 [4].
